Laboratory results reported in ChEMBL document CHEMBL2029312, “The antibacterial activity of 4,4'-bipyridinium amphiphiles with conventional, bicephalic and gemini architectures” (Bioorg Med Chem Lett, 2012).

How the values were obtained:
[1] = tested on: Enterococcus faecalis; test: Antibacterial activity against Enterococcus faecalis ATCC 29212 after 72 hrs by broth microdilution method; format: functional
[2] = tested on: Staphylococcus aureus; test: Antibacterial activity against Staphylococcus aureus subsp. aureus ATCC 29213 after 72 hrs by broth microdilution method; format: functional
[3] = tested on: Escherichia coli; test: Antibacterial activity against Escherichia coli ATCC 25922 after 72 hrs by broth microdilution method; format: functional
[4] = tested on: Pseudomonas aeruginosa; test: Antibacterial activity against Pseudomonas aeruginosa Boston 41501 ATCC 27853 after 72 hrs by broth microdilution method; format: functional
[5] = Solubility of the compound in water; format: physicochemical; details: buffer
[6] = tested on: Escherichia coli; test: Ratio of benzalkonium chloride MIC to compound MIC for Escherichia coli ATCC 25922; format: functional
[7] = tested on: Staphylococcus aureus; test: Ratio of benzalkonium chloride MIC to compound MIC for Staphylococcus aureus subsp. aureus ATCC 29213; format: functional
[8] = tested on: Enterococcus faecalis; test: Ratio of benzalkonium chloride MIC to compound MIC for Enterococcus faecalis ATCC 29212; format: functional
[9] = tested on: Pseudomonas aeruginosa; test: Ratio of benzalkonium chloride MIC to compound MIC for Pseudomonas aeruginosa Boston 41501 ATCC 27853; format: functional
[10] = Enterococcus faecalis, ATCC 29212, 72 h, read-out: MIC
[11] = Staphylococcus aureus, ATCC 29213, 72 h, read-out: MIC
[12] = Escherichia coli, ATCC 25922, 72 h, read-out: MIC
[13] = Pseudomonas aeruginosa, Boston 41501 ATCC 27853, 72 h, read-out: MIC

MIC [1, 10] [µM] | MIC [2, 11] [µM] | MIC [3, 12] [µM] | MIC [4, 13] [µM] | solubility [5] | MIC [1] [µM] | MIC [2] [µM] | MIC [3] [µM] | MIC [4] [µM] | Compound | Ratio [6] | Ratio [7] | Ratio [8] | Ratio [9]
31 | 8 | 31 | 125 |  |  |  |  |  | CCCCCCCCCCCCCCCCCC[n+]1ccc(-c2cc[n+](CCCC)cc2)cc1 |  |  |  | 
2 | 2 | 2 | 16 |  |  |  |  |  | CCCCCCCCCCCCCC[n+]1ccc(-c2cc[n+](CCCCCCCC)cc2)cc1 |  |  |  | 
 |  |  |  | Insoluble | 4 | 2 | 8 | 63 | CCCCCCCCCC[n+]1ccc(-c2cc[n+](CCCCCCCCCC)cc2)cc1.[I-].[I-] |  |  |  | 
 |  |  | 31 |  | 4 | 2 | 4 |  | CCCCCCCCCCCC[n+]1ccc(-c2cc[n+](CCCCCCCCCCCC)cc2)cc1.[Br-].[Br-] |  |  |  | 
 |  |  |  |  | 4 | 2 | 4 | 16 | CCCCCCCCCCCC[n+]1ccc(-c2cc[n+](CCCCCCCCCCCC)cc2)cc1.[Cl-].[Cl-] |  |  |  | 
8 | 2 | 8 | 31 |  |  |  |  |  | CCCCCCCCCCCCCCCC[n+]1ccc(-c2cc[n+](CCCCCC)cc2)cc1 |  |  |  | 
4 | 2 | 8 | 63 |  |  |  |  |  | CCCCCCCCCC[n+]1ccc(-c2cc[n+](CCCCCCCCCC)cc2)cc1 |  |  |  | 
31 | 8 | 31 | 63 | Insoluble |  |  |  |  | CCCCCCCCCCCCCCCCCC[n+]1ccc(-c2cc[n+](C)cc2)cc1.[Br-].[I-] |  |  |  | 
2 | 2 | 2 | 8 |  |  |  |  |  | CCCCCCCCCCCC[n+]1ccc(-c2cc[n+](CCCCCCCCCC)cc2)cc1 |  |  |  | 
 |  |  |  |  | 4 | 2 | 8 | 63 | CCCCCCCCCC[n+]1ccc(-c2cc[n+](CCCCCCCCCC)cc2)cc1.[Cl-].[Cl-] |  |  |  | 
 |  |  |  | Insoluble | 16 | 8 | 16 | 31 | CCCCCCCCCCCC[n+]1ccc(-c2cc[n+](CCCCCCCCCCCC)cc2)cc1.[I-].[I-] |  |  |  | 
31 | 16 | 125 | > 250 | Insoluble |  |  |  |  | CCCCCCCCCCCCCCCCCCCC[n+]1ccc(-c2cc[n+](C)cc2)cc1.[Br-].[I-] |  |  |  | 
31 | 8 | 31 | 125 |  |  |  |  |  | CCCCCCCCCCCCCCCCCC[n+]1ccc(-c2cc[n+](CC)cc2)cc1 |  |  |  | 
31 | 16 | 125 | > 250 |  |  |  |  |  | CCCCCCCCCCCCCCCCCCCC[n+]1ccc(-c2cc[n+](CC)cc2)cc1 |  |  |  | 

Second part, the compound before the results:

Compound | MIC [1, 10] [µM] | MIC [2, 11] [µM] | MIC [3, 12] [µM] | MIC [4, 13] [µM] | solubility [5] | MIC [1] [µM] | MIC [2] [µM] | MIC [3] [µM] | MIC [4] [µM] | Ratio [6] | Ratio [7] | Ratio [8] | Ratio [9]
CCCCCCCCCCCC[n+]1ccc(-c2cc[n+](C)cc2)cc1.[Br-].[I-] | 63 | 31 | 125 | 250 | Insoluble |  |  |  |  |  |  |  | 
CCCCCCCCCCCCC[n+]1ccc(-c2cc[n+](CCCCCCCCCCCCC)cc2)cc1.[Br-].[Br-] | 8 | 8 | 16 | 250 | Insoluble |  |  |  |  |  |  |  | 
CCCCCCCCCCCCCCCC[n+]1ccc(-c2cc[n+](CCCCCCCCCCCCCCCC)cc2)cc1.[Br-].[Br-] | > 250 | 250 | > 250 | > 250 | Insoluble |  |  |  |  |  |  |  | 
C[n+]1ccc(-c2cc[n+](C)cc2)cc1 | > 250 | > 250 | > 250 | > 250 |  |  |  |  |  |  |  |  | 
CCCCCCCCCCC[n+]1ccc(-c2cc[n+](CCCCCCCCCCC)cc2)cc1.[Br-].[Br-] |  | 2 |  |  |  | 2 |  | 2 | 16 | 4 | 4 | 4 | 4
CCCCCCCCCCC[n+]1ccc(-c2cc[n+](CCCCCCCCCCC)cc2)cc1.[Cl-].[Cl-] |  |  |  |  |  | 2 | 2 | 2 | 8 |  |  |  | 
CCCCCCCCCCCCCC[n+]1ccc(-c2cc[n+](CCCCCCCCCCCCCC)cc2)cc1.[Br-].[Br-] | 31 | 16 | 250 | > 250 | Insoluble |  |  |  |  |  |  |  | 
CCCCCCCCCCCCCCCC[n+]1ccc(-c2cc[n+](CCCCCCCCCCCCCCCC)cc2)cc1.[I-].[I-] |  |  |  |  | Insoluble | >250 | >250 | >250 | >250 |  |  |  | 
CCCCCCCCCCCCCC[n+]1ccc(-c2cc[n+](C)cc2)cc1.[Br-].[I-] | 31 | 4 | 63 | 125 | Insoluble |  |  |  |  |  |  |  | 
CCCCCCCCCCCC[n+]1ccc(-c2cc[n+](CC)cc2)cc1 | 250 | 63 | 250 | > 250 |  |  |  |  |  |  |  |  | 
CCCCCCCC[n+]1ccc(-c2cc[n+](CCCCCCCC)cc2)cc1 | 250 | 125 | > 250 | > 250 |  |  |  |  |  |  |  |  | 
CCCCCCCCCCCCCCCCCCCC[n+]1ccc(-c2ccncc2)cc1.[Br-] | > 250 | > 250 | > 250 | > 250 | Insoluble |  |  |  |  |  |  |  | 
CCCCCCCCCCCC[n+]1ccc(-c2ccncc2)cc1 | 63 | 16 | 63 | > 250 |  |  |  |  |  |  |  |  | 
CCCCCCCCCCCCCCCC[n+]1ccc(-c2cc[n+](CC)cc2)cc1.[Br-].[Br-] | 63 | 16 | 63 | 250 | Insoluble |  |  |  |  |  |  |  | 
CCCCCCCCCCCCCCCC[n+]1ccc(-c2cc[n+](CCCCCCCCCCCCCCCC)cc2)cc1.[Cl-].[Cl-] |  |  |  |  | Insoluble | >250 | >250 | >250 | >250 |  |  |  | 
CCCCCCCCCCCCCCCC[n+]1ccc(-c2ccncc2)cc1.[Br-] | 16 | 8 | 63 | > 250 | Insoluble |  |  |  |  |  |  |  | 
CCCCCCCCCCCCCC[n+]1ccc(-c2cc[n+](CC)cc2)cc1 | 31 | 8 | 63 | 250 |  |  |  |  |  |  |  |  | 
CCCCCCCCCCCCCCCC[n+]1ccc(-c2cc[n+](C)cc2)cc1.[Br-].[I-] | 31 | 4 | 31 | 125 | Insoluble |  |  |  |  |  |  |  | 
CCCCCCCCCCCCCCCCCC[n+]1ccc(-c2cc[n+](CCCCCCCCCCCCCCCCCC)cc2)cc1.[Br-].[Br-] | > 250 | > 250 | > 250 | > 250 | Insoluble |  |  |  |  |  |  |  | 
CCCCCCCCCCCCCCCCCC[n+]1ccc(-c2ccncc2)cc1.[Br-] | 31 | 16 | > 250 | > 250 | Insoluble |  |  |  |  |  |  |  | 
CCCCCCCCCCCCCC[n+]1ccc(-c2ccncc2)cc1 | 16 | 8 | 31 | 125 |  |  |  |  |  |  |  |  | 
CCCCCCCCCCC[n+]1ccc(-c2cc[n+](CCCCCCCCCCC)cc2)cc1.[I-].[I-] |  |  |  |  | Insoluble | 8 | 4 | 8 | 63 |  |  |  | 
